Source: US7625878B2, “Sulfoalkyl ether-alkyl ether cyclodextrin derivatives” (The University of Kansas, priority 2003, dated 2009)

How the values were obtained:
Type in all cases: physicochemical
[1] = binding constant K1:1 of inclusion complex with Nitrendipine; settings: substrate Nitrendipine, value (spread)
Experimental: (§1) The following tables detail some of the SAE-AE-CD's according to the invention. These products were made according to the examples below. The table indicates the inclusion complexes formed with the indicated drugs and cyclodextrins as well as their corresponding linear binding constants (K1:1) determined at 25° C.
(§2) The following general procedure was used to determine the extent of inclusion complex formation for an active agent/cyclodextrin derivative combination. The change in absorbance due to inclusion complex formation for a drug was monitored. The change in absorbance value as a function of total ligand concentration at a fixed concentration of substrate was measured. The wavelength for analysis was chosen appropriately depending on the analyzed drug. The analysis was performed using a Perkin Elmer double beam UV/Vis Lamda 6 instrument equipped with a data manager software and water jacketed multicell attachment. A circulating water bath was used to provide constant temperature during experiments. The data were linearized using the method described by Foster et al.: R. Foster, D. L. Hammich, A. A Wardley (Interaction of Polynitro compounds with Aromatic Hydroquinones and Bases. Part III. A New Method for Determining the Association Constants for Certain Interactions between Nitro Compounds and Bases in Solution. J. Chem. Soc. (1953) 3817-20). […]

[2] = binding constant K1:1 of inclusion complex with Prednisolone; settings: substrate Prednisolone, value (spread)
Experimental: as §1, §2

[3] = binding constant K1:1 of inclusion complex with Camptothecin; settings: substrate Camptothecin, value (spread)
Experimental: as §1
(§3) Excess amount of drug was added to a CD-containing aqueous solution (concentration ranging from 0 to 0.10M). […] The suspension was centrifuged for 5 min. at 3000 rpm (Dynac™ centrifuge, Clay Adams, Parsippany, N.J.). A 20 μL sample was obtained from the supernatant and diluted to 1-5-ml with glass double distilled water.
(§4) The mobile phase(s) was chosen in accordance with the properties of the analyzed drug and its behavior in interacting with the chromatographic support. Suitable exemplary conditions for specific drugs are detailed in the table below.

[4] = binding constant K1:1 of inclusion complex with α-Me-Prednisolone; settings: substrate α-Me-Prednisolone, value (spread)
Experimental: as §1, §3, §4
(§5) The following general procedure was used to determine the extent of inclusion complex formation for an active agent/cyclodextrin derivative combination. The change in absorbance due to inclusion complex formation for a drug was monitored. The change in absorbance value as a function of total ligand concentration at a fixed concentration of substrate was measured. The wavelength for analysis was chosen appropriately depending on the analyzed drug. […]

[5] = binding constant K1:1 of inclusion complex with Nimodipine; settings: substrate Nimodipine, value (spread)
Experimental: as §1, §2

[6] = binding constant K1:1 of inclusion complex with Clotrimazole; settings: substrate Clotrimazole, value (spread)
Experimental: as §1, §2

[7] = binding constant K1:1 of inclusion complex with Nifedipine; settings: substrate Nifedipine, value (spread)
Experimental: as §1, §3, §4, §5

[8] = binding constant K1:1 of inclusion complex with Triamcinolone; settings: substrate Triamcinolone, value (spread)
Experimental: as §1, §2

SMILES | K1:1 25° C. [1] | K1:1 25° C. [2] | K1:1 25° C. [3] [M⁻¹] | K1:1 25° C. [4] | K1:1 25° C. [5] | K1:1 25° C. [6] | K1:1 25° C. [7] | K1:1 25° C. [8]
OC[C@H]1O[C@@H]2O[C@H]3[C@H](O)[C@@H](O)[C@@H](O[C@H]4[C@H](O)[C@@H](O)[C@@H](O[C@H]5[C@H](O)[C@@H](O)[C@@H](O[C@H]6[C@H](O)[C@@H](O)[C@@H](O[C@H]7[C@H](O)[C@@H](O)[C@@H](O[C@H]8[C@H](O)[C@@H](O)[C@@H](O[C@H]9[C@H](O)[C@@H](O)[C@@H](O[C@H]1[C@H](O)[C@H]2O)O[C@@H]9CO)O[C@@H]8CO)O[C@@H]7CO)O[C@@H]6CO)O[C@@H]5CO)O[C@@H]4CO)O[C@@H]3CO [γ-CD, γ-cyclodextrin] | 2508(59) | 3300.42(21) | 73 | 3038(269) | 1780(190) | 1015(30) | 1416.1(162) | 9769 (560)
OC[C@H]1O[C@@H]2O[C@H]3[C@H](O)[C@@H](O)[C@@H](O[C@H]4[C@H](O)[C@@H](O)[C@@H](O[C@H]5[C@H](O)[C@@H](O)[C@@H](O[C@H]6[C@H](O)[C@@H](O)[C@@H](O[C@H]7[C@H](O)[C@@H](O)[C@@H](O[C@H]8[C@H](O)[C@@H](O)[C@@H](O[C@H]1[C@H](O)[C@H]2O)O[C@@H]8CO)O[C@@H]7CO)O[C@@H]6CO)O[C@@H]5CO)O[C@@H]4CO)O[C@@H]3CO [β-CD, β-cyclodextrin] |  |  |  |  |  |  | 121.9(35) | 
